Laboratory results: PubChem BioAssay AID1671438

Target: Tyrosine-protein kinase Yes (Homo sapiens) (UniProt P07947)
Assay: inhibitors of human YES1 tyrosine kinase activity – biochemical, Z'-LYTE, FRET readout, direct format, dose response (AID 1671438)
Settings: recombinant YES1

Sequence of Tyrosine-protein kinase Yes (Homo sapiens) (P07947 whole entry, looked up): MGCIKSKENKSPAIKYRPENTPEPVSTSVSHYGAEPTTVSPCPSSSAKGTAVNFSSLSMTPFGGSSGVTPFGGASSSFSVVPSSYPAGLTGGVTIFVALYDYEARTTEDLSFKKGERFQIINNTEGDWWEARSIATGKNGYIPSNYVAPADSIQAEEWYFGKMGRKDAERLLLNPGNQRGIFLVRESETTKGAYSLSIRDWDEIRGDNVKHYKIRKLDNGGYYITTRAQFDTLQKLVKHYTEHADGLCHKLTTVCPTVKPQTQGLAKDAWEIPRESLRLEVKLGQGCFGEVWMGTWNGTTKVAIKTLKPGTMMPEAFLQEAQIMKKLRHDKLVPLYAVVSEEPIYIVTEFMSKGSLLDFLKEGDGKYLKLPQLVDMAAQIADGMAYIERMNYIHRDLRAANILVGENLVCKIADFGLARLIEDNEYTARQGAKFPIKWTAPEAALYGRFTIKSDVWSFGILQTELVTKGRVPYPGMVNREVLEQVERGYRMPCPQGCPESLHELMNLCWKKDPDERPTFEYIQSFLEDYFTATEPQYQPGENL

COc1cc2ncnc(Nc3cccc(Cl)c3)c2cc1OC
IC50: 924 nM
